Test results as given in patent publication US20260028336A1 (Arcus Biosciences, Inc., priority 2022, published 2026).

Experiments:
[1] = system: Jurkat cells; test: IL-2 secretion assay in CD3/CD28-activated Jurkat cells (AlphaLISA); type: cell-based; conditions: Homo sapiens, CD3/CD28 T Cell Activator, 24 h, IL-2 AlphaLISA
Procedure, shortened: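 Jurkat cells (50,000/well) were preincubated 1 h at 37° C with compound in a 16-point 1:2 series spanning 10 μM to 300 pM final. Cells were then activated with CD3/CD28 T cell activator, and secreted IL-2 was read by AlphaLISA. EC50 came from 4-parameter logistic fits.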

[2] = target: T1, Cbl-b (Homo sapiens, UniProt Q13191); test: Cbl-b probe displacement HTRF binding assay; conditions: 0.4 nM biotinylated Cbl-b, 150 nM BODIPY probe
T1 construct: biotin (biotinylated)
Procedure, shortened: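 Biotinylated Cbl-b was preincubated with compound for 60 min at room temperature in HEPES/NaCl/Triton/TCEP/BSA buffer. BODIPY probe was added for 15 min, followed by streptavidin-terbium, and the HTRF signal was read. Displacement was normalised to DMSO and no-protein controls, and affinity was obtained from a four-parameter dose-response fit.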

T1 sequence (Q13191 whole entry, species assumed): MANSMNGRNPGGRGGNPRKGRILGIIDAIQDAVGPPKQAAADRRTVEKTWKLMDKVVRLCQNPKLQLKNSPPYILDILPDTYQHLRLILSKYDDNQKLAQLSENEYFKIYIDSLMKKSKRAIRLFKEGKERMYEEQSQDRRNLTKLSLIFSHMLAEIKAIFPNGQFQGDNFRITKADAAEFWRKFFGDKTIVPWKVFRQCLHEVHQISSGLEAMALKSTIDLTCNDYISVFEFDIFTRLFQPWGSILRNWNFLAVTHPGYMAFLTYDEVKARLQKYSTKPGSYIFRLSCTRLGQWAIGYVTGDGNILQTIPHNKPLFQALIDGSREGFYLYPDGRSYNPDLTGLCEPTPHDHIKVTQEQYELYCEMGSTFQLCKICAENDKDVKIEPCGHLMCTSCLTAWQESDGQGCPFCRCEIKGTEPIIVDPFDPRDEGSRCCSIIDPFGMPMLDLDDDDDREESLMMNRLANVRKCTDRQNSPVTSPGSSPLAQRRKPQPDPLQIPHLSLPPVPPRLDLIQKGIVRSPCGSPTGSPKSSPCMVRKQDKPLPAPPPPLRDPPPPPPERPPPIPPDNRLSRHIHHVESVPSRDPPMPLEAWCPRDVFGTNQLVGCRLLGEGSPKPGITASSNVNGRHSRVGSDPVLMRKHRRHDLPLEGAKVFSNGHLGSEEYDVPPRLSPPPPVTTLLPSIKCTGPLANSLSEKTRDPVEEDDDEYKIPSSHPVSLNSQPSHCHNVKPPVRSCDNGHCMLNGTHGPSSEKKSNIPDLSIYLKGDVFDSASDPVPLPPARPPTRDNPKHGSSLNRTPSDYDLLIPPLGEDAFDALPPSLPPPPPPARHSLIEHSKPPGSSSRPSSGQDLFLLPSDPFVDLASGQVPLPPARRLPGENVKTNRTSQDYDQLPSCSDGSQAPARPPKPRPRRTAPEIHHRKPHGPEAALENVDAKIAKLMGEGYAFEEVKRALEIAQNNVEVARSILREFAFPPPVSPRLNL

EC50 [1] | IC50 [2] | SMILES
1000 to 5000 nM | 100 to 1000 nM | Cn1cnnc1C1(c2cccc(-n3cc(C4CC4)c4cc[nH]c4c3=O)c2)CCC1 [Example 9, 4-cyclopropyl-6-[3-[1-(4-methyl-1,2,4-triazol-3-yl)cyclobutyl]phenyl]-1H-pyrrolo[2,3-c]pyridin-7-one]
1000 to 5000 nM | 100 to 1000 nM | Cn1cnnc1[C@]1(c2cccc(-n3cc(C4CC4)c4nc[nH]c4c3=O)c2)C[C@@H](C)C1 (single isomer, unassigned) [Example 12, 7-cyclopropyl-5-{3-[(1s,3r)-3-methyl-1-(4-methyl-4H-1,2,4-triazol-3-yl)cyclobutyl]phenyl}-3H,4H,5H-imidazo[4,5-c]pyridin-4-one]
100 to 1000 nM | 100 to 1000 nM | C[C@H]1CCCN(Cc2cc3c(C4CC4)cn(-c4cccc(C(F)c5nncn5C)c4)c(=O)c3[nH]2)C1 (stereo partly drawn) [Example 162, 4-cyclopropyl-6-[3-[fluoro-(4-methyl-1,2,4-triazol-3-yl)methyl]phenyl]-2-[[(3S)-3-methylpiperidin-1-yl]methyl]-1H-pyrrolo[2,3-c]pyridin-7-one]
< 100 nM | < 100 nM | CC1CC(c2cccc(-n3cc(C4CC4)c4cc(CN[C@@H]5CCCOC5)[nH]c4c3=O)c2)(c2nncn2C)C1 (stereo partly shown) [Example 49, 4-cyclopropyl-6-{3-[3-methyl-1-(4-methyl-4H-1,2,4-triazol-3-yl)cyclobutyl]phenyl}-2-{[(oxan-3-yl)amino]methyl}-1H,6H,7H-pyrrolo[2,3-c]pyridin-7-one]
< 100 nM | < 100 nM | CC1CC(c2cccc(-n3cc(C4CC4)c4c(S(C)(=O)=O)c(CN5CCC[C@H](C)C5)[nH]c4c3=O)c2)(c2nncn2C)C1 (mixture of isomers) [Example 135, 4-Cyclopropyl-3-methanesulfonyl-2-{[(3S)-3-methylpiperidin-1-yl]methyl}-6-{3-[(1R,3S)-3-methyl-1-(4-methyl-4H-1,2,4-triazol-3-yl)cyclobutyl]phenyl}-1H,6H,7H-pyrrolo[2,3-c]pyridin-7-one]
100 to 1000 nM | < 100 nM | Cn1cnnc1[C@]1(c2cccc(-n3cc(C(F)(F)F)c4cn[nH]c4c3=O)c2)C[C@H](C)C1 [Example 140, 6-{3-[(1R,3S)-3-Methyl-1-(4-methyl-4H-1,2,4-triazol-3-yl)cyclobutyl]phenyl}-4-(trifluoromethyl)-1H,6H,7H-pyrazolo[3,4-c]pyridin-7-one]
> 5000 nM | 100 to 1000 nM | Cn1cnnc1[C@]1(c2cccc(-n3cc(S(C)(=O)=O)c4cc[nH]c4c3=O)c2)C[C@H](C)C1 (single isomer, unassigned) [Example 108, 6-[3-[3-methyl-1-(4-methyl-1,2,4-triazol-3-yl)cyclobutyl]phenyl]-4-methylsulfonyl-1H-pyrrolo[2,3-c]pyridin-7-one]
1000 to 5000 nM | 100 to 1000 nM | CC1CC(c2cccc(-n3cc(C4CC4)c4cc(CN5C[C@H](F)C[C@H](F)C5)[nH]c4c3=O)c2)(c2nncn2C)C1 (stereo partly drawn) [Example 67, 4-cyclopropyl-2-{[(3R,5S)-3,5-difluoropiperidin-1-yl]methyl}-6-{3-[(1r)-3-methyl-1-(4-methyl-4H-1,2,4-triazol-3-yl)cyclobutyl]phenyl}-1H,6H,7H-pyrrolo[2,3-c]pyridin-7-one]
100 to 1000 nM | < 100 nM | C[C@H]1CCCN(Cc2cc3c(C4CC4)cn(-c4cccc([C@H](c5nncn5C(F)F)C5CCC5)c4)c(=O)c3[nH]2)C1 [Example 154, 6-(m-{(R)-cyclobutyl[4-(difluoromethyl)-4H-1,2,4-triazol-3-yl]methyl}phenyl)-2-{[(S)-3-methyl-1-piperidyl]methyl}-4-cyclopropyl-1,6-dihydro-1,6-diaza-7-indenone]
< 100 nM | < 100 nM | C[C@H]1CCCN(Cc2cc3c(C4CC4)cn(-c4cccc([C@]5(c6nccn6C)C[C@H](F)C5)c4)c(=O)c3[nH]2)C1 [Example 126, 4-cyclopropyl-6-(3-((1r,3S)-3-fluoro-1-(1-methyl-1H-imidazol-2-yl)cyclobutyl)phenyl)-2-(((S)-3-methylpiperidin-1-yl)methyl)-1,6-dihydro-7H-pyrrolo[2,3-c]pyridin-7-one]
< 100 nM | < 100 nM | CO[C@H]1C[C@](c2cccc(-n3cc(C4CC4)c4cc(CN5CCC[C@H](C)C5)[nH]c4c3=O)c2)(c2nncn2C)C1 [Example 101, trans-4-cyclopropyl-6-[3-[3-methoxy-1-(4-methyl-1,2,4-triazol-3-yl)cyclobutyl]phenyl]-2-[[(3S)-3-methylpiperidin-1-yl]methyl]-1H-pyrrolo[2,3-c]pyridin-7-one]
< 100 nM | < 100 nM | CC1CC(c2cccc(-n3cc(C4CC4)c4cc(CN5CCC6(CC6)C5)[nH]c4c3=O)c2)(c2nncn2C)C1 (stereo not shown) [Example 63, 2-({5-azaspiro[2.4]heptan-5-yl}methyl)-4-cyclopropyl-6-{3-[(1r,3s)-3-methyl-1-(4-methyl-4H-1,2,4-triazol-3-yl)cyclobutyl]phenyl}-1H,6H,7H-pyrrolo[2,3-c]pyridin-7-one]
1000 to 5000 nM | < 100 nM | C[C@H]1CCCN(Cc2cc3c(C4CC4)cn(-c4cccc(C5(c6nncn6CC(F)(F)F)CC6(CC6)C5)c4)c(=O)c3[nH]2)C1 [Example 147, 4-Cyclopropyl-2-[[(3S)-3-methylpiperidin-1-yl]methyl]-6-[3-[5-[4-(2,2,2-trifluoroethyl)-1,2,4-triazol-3-yl]spiro[2.3]hexan-5-yl]phenyl]-1H-pyrrolo[2,3-c]pyridin-7-one]
100 to 1000 nM | < 100 nM | CC(C)[C@H]1CN(C)CCN1Cc1cc2c(C3CC3)cn(-c3cccc(C4(c5nncn5C)CC5(CC5)C4)c3)c(=O)c2[nH]1 [Example 73, 4-cyclopropyl-2-{[(2S)-4-methyl-2-(propan-2-yl)piperazin-1-yl]methyl}-6-{3-[5-(4-methyl-4H-1,2,4-triazol-3-yl)spiro[2.3]hexan-5-yl]phenyl}-1H,6H,7H-pyrrolo[2,3-c]pyridin-7-one]
100 to 1000 nM | < 100 nM | C[C@H]1CCCN(Cc2cc3c(C4CC4)cn(-c4cccc(C5(c6nncn6C6CC6)CC6(CC6)C5)c4)c(=O)c3[nH]2)C1 [Example 144, 4-cyclopropyl-6-[3-[5-(4-cyclopropyl-1,2,4-triazol-3-yl)spiro[2.3]hexan-5-yl]phenyl]-2-[[(3S)-3-methylpiperidin-1-yl]methyl]-1H-pyrrolo[2,3-c]pyridin-7-one]
100 to 1000 nM | < 100 nM | CC1CC(c2cccc(-n3cc(C4CC4)c4cc(CN5CCN(C)C[C@@H]5C(C)C)[nH]c4c3=O)c2)(c2nncn2C)C1 (stereo partly drawn) [Example 68, 4-cyclopropyl-2-{[(2S)-4-methyl-2-(propan-2-yl)piperazin-1-yl]methyl}-6-{3-[(1r,3s)-3-methyl-1-(4-methyl-4H-1,2,4-triazol-3-yl)cyclobutyl]phenyl}-1H,6H,7H-pyrrolo[2,3-c]pyridin-7-one]
1000 to 5000 nM | 100 to 1000 nM | CC(C)[C@H]1CNCCN1Cc1cc2c(C3CC3)cn(-c3cccc(C4(c5nncn5C)CC5(CC5)C4)c3)c(=O)c2[nH]1 [Example 72, 4-cyclopropyl-6-{3-[5-(4-methyl-4H-1,2,4-triazol-3-yl)spiro[2.3]hexan-5-yl]phenyl}-2-{[(2S)-2-(propan-2-yl)piperazin-1-yl]methyl}-1H,6H,7H-pyrrolo[2,3-c]pyridin-7-one]
100 to 1000 nM | < 100 nM | Cn1cnnc1CC1(c2cccc(-n3cc(C4CC4)c4cc(CN5CCC6(CC6)C5)[nH]c4c3=O)c2)COC1 [Example 76, 2-({5-azaspiro[2.4]heptan-5-yl}methyl)-4-cyclopropyl-6-(3-{3-[(4-methyl-4H-1,2,4-triazol-3-yl)methyl]oxetan-3-yl}phenyl)-1H,6H,7H-pyrrolo[2,3-c]pyridin-7-one]
100 to 1000 nM | < 100 nM | Cn1cnnc1[C@]1(c2cccc(-n3cc(C(F)(F)F)c4cc[nH]c4c3=O)c2)C[C@H](C)C1 (single isomer, unassigned) [Example 36]
< 100 nM | < 100 nM | C[C@H]1CCCN(Cc2cc3c(C4CC4)cn(-c4cccc([C@]5(c6nncn6C)C[C@H](F)C5)c4)c(=O)c3[nH]2)C1 [Example 130, trans-4-cyclopropyl-6-[3-[3-fluoro-1-(4-methyl-1,2,4-triazol-3-yl)cyclobutyl]phenyl]-2-[[(3S)-3-methylpiperidin-1-yl]methyl]-1H-pyrrolo[2,3-c]pyridin-7-one]
< 100 nM | < 100 nM | CC1CC(c2cccc(-n3cc(C4CC4)c4cc(CN5CC6CCC5C6)[nH]c4c3=O)c2)(c2nncn2C)C1 (stereo not shown) [Example 52, 2-({2-azabicyclo[2.2.1]heptan-2-yl}methyl)-4-cyclopropyl-6-{3-[3-methyl-1-(4-methyl-4H-1,2,4-triazol-3-yl)cyclobutyl]phenyl}-1H,6H,7H-pyrrolo[2,3-c]pyridin-7-one]
< 100 nM | < 100 nM | CC1CC(c2cccc(-n3cc(C4CC4)c4cc(CN(C)C)[nH]c4c3=O)c2)(c2nncn2C)C1 (stereo not shown) [Example 55, 4-cyclopropyl-2-[(dimethylamino)methyl]-6-{3-[3-methyl-1-(4-methyl-4H-1,2,4-triazol-3-yl)cyclobutyl]phenyl}-1H,6H,7H-pyrrolo[2,3-c]pyridin-7-one]
100 to 1000 nM | < 100 nM | CC1CC(c2cccc(-n3cc(C4CC4)c4cc(CNCCOC(F)(F)F)[nH]c4c3=O)c2)(c2nncn2C)C1 (stereo not shown) [Example 46, 4-cyclopropyl-6-{3-[3-methyl-1-(4-methyl-4H-1,2,4-triazol-3-yl)cyclobutyl]phenyl}-2-({[2-(trifluoromethoxy)ethyl]amino}methyl)-1H,6H,7H-pyrrolo[2,3-c]pyridin-7-one]
